In the METLIN SMRT retention time set (Domingo-Almenara et al. 2019) one finds RP-LC retention time data, which are given here for 81 compounds.

The series is described as follows: gradient 5% acetonitrile 3 min, to 50% in 2 min, to 85% in 15 min, held 3 min, 100 µL/min. To be noted: column: Zorbax Extend-C18 2.1 x 50 mm; eluents: water / acetonitrile, 0.1% formic acid. Summed up: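 Using water and acetonitrile that each contained 0.1% formic acid, mixtures of ~100 pure standards were separated at 100 μL/min on a Zorbax Extend-C18 column (2.1 × 50 mm, 1.8 μm). The HPLC fed a quadrupole time-of-flight mass spectrometer working in positive and negative ionization mode, with dead and dwell volumes of 40 μL and 900 μL. Data were acquired over 3 months. Retention time was read from computationally picked adduct peaks after manual inspection of each.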
Regarding `CNC(=O)N1CCc2nc(-c3ccccc3)ncc2C1`, the RP-LC retention time was 678 s.

For the compound `Cc1ccc(-c2nnc(-c3ccccc3)o2)cc1S(=O)(=O)N1CCCC1`, the RP-LC retention time was determined as 1020 s.

As for `Cc1ccc(S(=O)(=O)N2CCc3nc(NC(=O)c4ccnn4C)sc3C2)cc1`, the RP-LC retention time was found to be 860 s.

Compound `CC(C)c1ccc(CNC(=O)c2ccc3ncnc(N4CCOCC4)c3c2)cc1` displayed an RP-LC retention time of 708 s.

Consider `CCN1CCCn2cc(S(=O)(=O)N3CCCCCC3)cc2C1=O`, for which the RP-LC retention time is 747 s.

Turning to `CCc1nc(-c2csc(S(=O)(=O)N3CCC(C(=O)Nc4ccc(F)cc4Cl)CC3)c2)no1`, the RP-LC retention time was 1040 s.

`CC(C)(C)c1ccc(S(=O)(=O)N2CCC3(CC2)NCCN=C3NCc2ccccc2)cc1`: the RP-LC retention time is 854 s.

The compound `CNC(=O)c1cc(-c2ccc(F)cc2)n[nH]1` showed an RP-LC retention time of 659 s.

Take `COc1ccc(Nc2c(C(=O)N3CCC(C)CC3)cnc3nc(C)ccc23)cc1OC`: the RP-LC retention time amounted to 629 s.

Regarding `CCOc1ccc(S(=O)(=O)N2CCC(C(=O)NCc3ccccn3)CC2)cc1C`, the RP-LC retention time was 680 s.

Regarding `COc1ccc(-c2noc(NCCc3ccc(OC)c(OC)c3)n2)cc1`, the RP-LC retention time was found to be 891 s.

Consider `Cn1nc(N2CCC(NC(=O)c3ccc[nH]c3=O)C2)ccc1=O` (stereo unspecified), for which the RP-LC retention time turned out to be 575 s.

Compound `Cc1ccc(NC(=O)CSc2ccc(N3CCCC(C(=O)NC4CC4)C3)nn2)c(Cl)c1` (stereo unspecified) returned an RP-LC retention time of 705 s.

As to `O=C(Cc1cccs1)Nc1cccc(OCc2nnc(-c3ccccc3)o2)c1`, the RP-LC retention time was found to be 905 s.

Turning to `COc1ccc(CNC(=O)c2nc3cccnc3n(C)c2=O)cc1`, the RP-LC retention time is 742 s.

Consider `COC(=O)c1cc(S(=O)(=O)N2CCCC2C(=O)Nc2ccc(Br)cc2F)cn1C` (stereo unspecified), for which the RP-LC retention time turned out to be 999 s.

`Cc1ccc(C)c(NC(=O)NCC2CCOCC2)c1` registered an RP-LC retention time of 705 s.

Compound `O=c1n(Cc2cccc(Cl)c2)nc2ccc(S(=O)(=O)N3CCCC3)cn12` registered an RP-LC retention time of 919 s.

`O=C(Cc1cccs1)Nc1cccc(OCc2nnc(-c3ccc(Cl)cc3)o2)c1`: the RP-LC retention time was determined as 1010 s.

In the case of `CSc1ncn(-c2nc(N(C)C)nc(N3CCCCCC3)n2)n1`, the RP-LC retention time is 1200 s.

Regarding `O=C(Cc1ccc(Cl)cc1)N1CCN(c2cnn3cnnc3c2)CC1`, the RP-LC retention time was 656 s.

As to `CCc1ccc(CNC(=O)Cn2ccc3c(=O)n(CC)c(=O)n(CC)c32)cc1`, the RP-LC retention time is 783 s.

For the compound `Cn1nccc1C(=O)N1CCc2c(c(CO)nn2Cc2ccccc2)C1`, the RP-LC retention time was found to be 630 s.

On to `CC(C)CN1CCC(N2CC(COc3ccccc3)C3(CCOCC3)C2)CC1` (stereo unspecified), for which the RP-LC retention time came out at 574 s.

Turning to `Cc1cc(C)c(S(=O)(=O)NC(C)Cn2cncn2)c(C)c1` (stereo unspecified), the RP-LC retention time turned out to be 664 s.

Compound `CCNC(=O)CN1CCN(Cc2ccccc2F)C1=O` yielded an RP-LC retention time of 658 s.

Take `COc1cccc(-c2nc3ccccc3n2CC(=O)N2CCC(C)CC2)c1`: the RP-LC retention time worked out at 668 s.

The compound `O=C(NCc1ccc(F)cc1)C1CCN(c2cc(N3CCCCC3)ncn2)CC1` returned an RP-LC retention time of 676 s.

Turning to `Cc1ccc(CNC(=O)C2(C)CCCN(C(=O)Nc3ccc(C)cc3C)C2)cc1` (stereo unspecified), the RP-LC retention time was found to be 947 s.

Compound `CCN(CC)CCNC(=O)c1nnc(-c2ccc(S(=O)(=O)N3CCCC3)cc2)o1` gave an RP-LC retention time of 670 s.

Regarding `Cn1nc(N2CCC(NC(=O)CCn3cccn3)C2)ccc1=O` (stereo unspecified), the RP-LC retention time was determined as 582 s.

Compound `CCOCCCNC(=O)Cn1nc(C)c2nn(-c3ccc(Cl)cc3)c(-n3cccc3)c2c1=O` came in with an RP-LC retention time of 898 s.

`Cc1c(-c2noc(-c3ccccc3)n2)nnn1Cc1ccccc1` had an RP-LC retention time of 1060 s.

In the case of `Cc1ccccc1Cn1nc2c(S(=O)(=O)N3CCCC3)cccn2c1=O`, the RP-LC retention time amounted to 846 s.

As for `COc1ccc2c(c1)C1(CCN(C(=O)C(C)C)C1)C(=O)N2` (stereo unspecified), the RP-LC retention time came out at 646 s.

`Cc1nc(-n2nc(C)c(Cl)c2C)sc1C(=O)N1CCOCC1` registered an RP-LC retention time of 953 s.

Turning to `CC(C)c1cc(C(=O)NC2CC2)n[nH]1`, the RP-LC retention time came to 625 s.

With `Cc1noc(/C=C\c2ccc(S(=O)(=O)N3CCN(c4ncccn4)CC3)cc2)c1NC(=O)C1CC1`, the RP-LC retention time was determined as 849 s.

In turn, `COc1ccccc1NC(=O)N1CCC2(CC1)N=C(c1cccc(F)c1)C(=O)N2` displayed an RP-LC retention time of 840 s.

The compound `CCN(CC)C(=O)C1C(=O)NC2(C)CC1c1ccccc1O2` (stereo unspecified) registered an RP-LC retention time of 716 s.

Compound `COc1ccc(N2CCN(C(=O)C3CC(=O)N(c4ccc(C)c(C)c4)C3)CC2)nn1` (stereo unspecified) yielded an RP-LC retention time of 594 s.

As for `c1ccc2c(CC3=NCCN3)cccc2c1`, the RP-LC retention time is 619 s.

As to `Fc1ccc(-c2nc(-c3ccc(-n4cccn4)nc3)no2)cc1`, the RP-LC retention time is 1230 s.

In turn, `Cc1nnc2ccc(S(=O)(=O)N(Cc3ccccc3)c3ccc(Cl)cc3)cn12` gave an RP-LC retention time of 930 s.

Turning to `CCc1ccc(-c2nc(C3CC(=O)N(c4ccc(F)cc4)C3)no2)cc1` (stereo unspecified), the RP-LC retention time came out at 1110 s.

Consider `CN1C(=O)C2(CCN(C(=O)Cc3ccc(Cl)cc3)C2)c2ccccc21` (stereo unspecified), for which the RP-LC retention time is 872 s.

`Cc1cc2nc(C)c(=O)n(CC(=O)NCCN(C)C)c2cc1C` displayed an RP-LC retention time of 583 s.

Regarding `CN(C)c1ccc(/C=C2\Cc3ccccc3C2=O)cc1Br`, the RP-LC retention time was determined as 1170 s.

`O=C(CSc1nccn1Cc1ccc(Cl)cc1)NCCc1ccccc1`: the RP-LC retention time is 644 s.

Take `CCCn1c(-c2cccc(C(=O)NCc3cccc(C(F)(F)F)c3)c2)nc2cccnc21`: the RP-LC retention time was found to be 936 s.

The compound `CCCc1nnc(NC(=O)C2CCN(C(=O)c3ccc(F)cc3)CC2)s1` returned an RP-LC retention time of 721 s.

On to `CCOC(=O)c1c(C)oc2nc(C)nc(NCc3cccc(Cl)c3)c12`, for which the RP-LC retention time is 1330 s.

For `CCc1sc(NC(=O)Cc2ccc(F)cc2)nc1-c1ccccc1`, the RP-LC retention time was 1110 s.

The compound `COc1ccc(F)cc1S(=O)(=O)N1C[C@@H]2C[C@H](NC(=O)c3cccs3)[C@H]1C2` came in with an RP-LC retention time of 834 s.

Consider `CN(CC(=O)N1CCN(C2CCCC2)CC1)S(=O)(=O)c1ccc2c(c1)CCCC(=O)N2`, for which the RP-LC retention time amounted to 588 s.

In the case of `CCOc1ccccc1C(=O)N1CCN(S(=O)(=O)c2cc3c4c(c2)CCC(=O)N4CCC3)CC1`, the RP-LC retention time was determined as 820 s.

`CC(C)n1cnc2cc(CNC(=O)c3cccc(C#N)c3)ccc21` displayed an RP-LC retention time of 596 s.

In turn, `CC(=O)N1CCN(C(=O)C2CCCN(c3ccc(-c4ccc(C)c(C)c4)nn3)C2)CC1` (stereo unspecified) registered an RP-LC retention time of 622 s.

As to `O=C(Nc1ccc(F)cc1F)C1CCCN(S(=O)(=O)c2c[nH]c(C(=O)N3CCCCCC3)c2)C1` (stereo unspecified), the RP-LC retention time worked out at 897 s.

In the case of `COCCCNC(=O)N1CCCN(C2=NS(=O)(=O)C(c3ccc(F)cc3)=C2C)CC1`, the RP-LC retention time came to 709 s.

For `Cc1noc([C@@H]2CC(F)(F)CN2C(=O)c2ccco2)n1`, the RP-LC retention time worked out at 706 s.

Take `O=C(NCC(F)(F)F)C1CN(C(=O)c2ccc(F)c(F)c2)C1`: the RP-LC retention time is 667 s.

`CCOC(=O)c1cnc2c(C)cc(C)cc2c1NCCCN(C)C` gave an RP-LC retention time of 565 s.

In turn, `CCCCNC(=O)C1CCN(c2cc(N3CCCCC3)ncn2)CC1` returned an RP-LC retention time of 642 s.

Compound `O=C(c1c[nH]c2ccccc12)N1CCC(c2nc(-c3ccccc3)no2)C1` (stereo unspecified) registered an RP-LC retention time of 901 s.

Turning to `Cc1ccc(-c2nnc(-c3nn(C)c4c3CN(S(=O)(=O)c3c(C)cc(C)cc3C)CC4)o2)cc1`, the RP-LC retention time was 1160 s.

For `COc1ccc(NC(=O)Cn2cccc2-c2nnc(-c3ccccc3)o2)cc1`, the RP-LC retention time worked out at 894 s.

Compound `CCn1cc(CC(=O)NC2CCN(Cc3ccccc3)CC2)c2cccnc21` yielded an RP-LC retention time of 564 s.

The compound `O=C(Cc1ccccc1F)N1CCc2cc(-c3ccno3)ccc21` registered an RP-LC retention time of 961 s.

As to `O=C(Cn1c2c(c3ccccc31)CCC2)NCCn1ncccc1=O`, the RP-LC retention time was 710 s.

The compound `CC(C)OC(=O)Nc1ccc2nc(-c3cscn3)[nH]c2c1` showed an RP-LC retention time of 666 s.

Turning to `Cc1ccc2[nH]cc(CCN3CC(C(=O)Nc4nnc(CC(C)(C)C)s4)CC3=O)c2c1` (stereo unspecified), the RP-LC retention time is 864 s.

`Cc1cnc(C(=O)NC2C[C@H]3CC[C@@H](C2)N3C(=O)Cc2c(C)noc2C)cn1` (stereo partly specified): the RP-LC retention time worked out at 611 s.

`COc1ccc(C(C)NC(=O)c2cc(NC(C)=O)cc3nc(C)ccc23)cc1` (stereo unspecified) registered an RP-LC retention time of 618 s.

Regarding `CCOc1cccc(-c2noc(-c3nnn4c3COC(c3ccc(Cl)cc3)C4)n2)c1` (stereo unspecified), the RP-LC retention time turned out to be 1320 s.

`O=[N+]([O-])c1ccc(-c2nc(NCCCO)c3ccccc3n2)cc1`: the RP-LC retention time amounted to 595 s.

In turn, `Cc1cc(C)c(NC(=O)Cn2c(N(C)Cc3ccccc3)nc(C)cc2=O)c(C)c1` yielded an RP-LC retention time of 860 s.

In turn, `COc1ccc(NC(=O)C2CCN(c3nnc4ccccn34)CC2)cc1C(F)(F)F` showed an RP-LC retention time of 704 s.

`CCn1cc(S(=O)(=O)Nc2cc(C)ccc2C)c2cccnc21` registered an RP-LC retention time of 892 s.

Compound `Cc1ccc(CNS(=O)(=O)c2cc3c4c(c2)CCC(=O)N4CCC3)cc1` came in with an RP-LC retention time of 868 s.

Turning to `CCOc1nc2ccccc2nc1N1CCCC(C(=O)N2CCN(c3ccc(F)cc3)CC2)C1` (stereo unspecified), the RP-LC retention time is 1300 s.
